Read-outs that look alike come from different tables or passages of the source.
Key:
FAK = biological target: T1, FAK (Homo sapiens, UniProt Q05397); type: binding; conditions: for remaining binding at 10 µM: read-out: Percent control
T1 construct: purchased DiscoveRx KINOMEscan

INSRR = biological target: T2, INSRR (Homo sapiens, UniProt P14616); type: binding; conditions: for remaining binding at 10 µM: read-out: Percent control
T2 construct: purchased DiscoveRx KINOMEscan

[1] = biological target: T3, JAK3(JH1domain-catalytic) (Homo sapiens, UniProt P52333); type: binding; conditions: for remaining binding at 10 µM: read-out: Percent control
T3 construct: JAK3(JH1domain-catalytic); purchased DiscoveRx KINOMEscan
T3 sequence (P52333 813-1124 limits assumed): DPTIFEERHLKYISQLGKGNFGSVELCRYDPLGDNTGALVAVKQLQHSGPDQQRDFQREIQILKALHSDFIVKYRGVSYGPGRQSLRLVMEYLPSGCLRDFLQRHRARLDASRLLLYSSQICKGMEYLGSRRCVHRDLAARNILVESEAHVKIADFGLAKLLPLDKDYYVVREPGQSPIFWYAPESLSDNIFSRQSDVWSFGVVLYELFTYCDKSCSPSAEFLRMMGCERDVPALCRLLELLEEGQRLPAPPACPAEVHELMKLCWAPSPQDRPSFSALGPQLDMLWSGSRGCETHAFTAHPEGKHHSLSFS

MUSK = biological target: T4, MUSK (Homo sapiens, UniProt O15146); type: binding; conditions: for remaining binding at 10 µM: read-out: Percent control
T4 construct: purchased DiscoveRx KINOMEscan
T4 sequence (O15146 24-869): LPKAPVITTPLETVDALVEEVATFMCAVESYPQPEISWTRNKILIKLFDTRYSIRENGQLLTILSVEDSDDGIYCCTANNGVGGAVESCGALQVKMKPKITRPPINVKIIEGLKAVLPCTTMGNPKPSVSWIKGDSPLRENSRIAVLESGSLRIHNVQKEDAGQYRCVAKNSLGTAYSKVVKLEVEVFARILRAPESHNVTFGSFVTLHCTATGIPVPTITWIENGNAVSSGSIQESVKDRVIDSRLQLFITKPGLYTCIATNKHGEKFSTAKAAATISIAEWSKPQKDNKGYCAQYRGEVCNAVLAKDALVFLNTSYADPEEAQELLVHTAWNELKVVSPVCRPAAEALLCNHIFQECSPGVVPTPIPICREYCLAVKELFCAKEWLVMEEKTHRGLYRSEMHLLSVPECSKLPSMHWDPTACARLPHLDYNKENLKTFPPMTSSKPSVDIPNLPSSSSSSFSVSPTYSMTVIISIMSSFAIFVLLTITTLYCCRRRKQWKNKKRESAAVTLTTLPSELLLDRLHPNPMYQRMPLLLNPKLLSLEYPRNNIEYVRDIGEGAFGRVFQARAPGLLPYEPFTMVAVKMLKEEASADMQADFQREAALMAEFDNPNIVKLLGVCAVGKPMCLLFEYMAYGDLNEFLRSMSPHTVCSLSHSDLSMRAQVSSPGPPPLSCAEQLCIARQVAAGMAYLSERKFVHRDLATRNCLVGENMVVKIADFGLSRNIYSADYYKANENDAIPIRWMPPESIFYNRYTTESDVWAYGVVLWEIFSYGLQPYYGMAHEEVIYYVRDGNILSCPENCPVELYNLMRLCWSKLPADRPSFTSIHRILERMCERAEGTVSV

EPHB1 = biological target: T5, EPHB1 (Homo sapiens, UniProt P54762); conditions: 10 μM
T5 sequence (P54762 18-984): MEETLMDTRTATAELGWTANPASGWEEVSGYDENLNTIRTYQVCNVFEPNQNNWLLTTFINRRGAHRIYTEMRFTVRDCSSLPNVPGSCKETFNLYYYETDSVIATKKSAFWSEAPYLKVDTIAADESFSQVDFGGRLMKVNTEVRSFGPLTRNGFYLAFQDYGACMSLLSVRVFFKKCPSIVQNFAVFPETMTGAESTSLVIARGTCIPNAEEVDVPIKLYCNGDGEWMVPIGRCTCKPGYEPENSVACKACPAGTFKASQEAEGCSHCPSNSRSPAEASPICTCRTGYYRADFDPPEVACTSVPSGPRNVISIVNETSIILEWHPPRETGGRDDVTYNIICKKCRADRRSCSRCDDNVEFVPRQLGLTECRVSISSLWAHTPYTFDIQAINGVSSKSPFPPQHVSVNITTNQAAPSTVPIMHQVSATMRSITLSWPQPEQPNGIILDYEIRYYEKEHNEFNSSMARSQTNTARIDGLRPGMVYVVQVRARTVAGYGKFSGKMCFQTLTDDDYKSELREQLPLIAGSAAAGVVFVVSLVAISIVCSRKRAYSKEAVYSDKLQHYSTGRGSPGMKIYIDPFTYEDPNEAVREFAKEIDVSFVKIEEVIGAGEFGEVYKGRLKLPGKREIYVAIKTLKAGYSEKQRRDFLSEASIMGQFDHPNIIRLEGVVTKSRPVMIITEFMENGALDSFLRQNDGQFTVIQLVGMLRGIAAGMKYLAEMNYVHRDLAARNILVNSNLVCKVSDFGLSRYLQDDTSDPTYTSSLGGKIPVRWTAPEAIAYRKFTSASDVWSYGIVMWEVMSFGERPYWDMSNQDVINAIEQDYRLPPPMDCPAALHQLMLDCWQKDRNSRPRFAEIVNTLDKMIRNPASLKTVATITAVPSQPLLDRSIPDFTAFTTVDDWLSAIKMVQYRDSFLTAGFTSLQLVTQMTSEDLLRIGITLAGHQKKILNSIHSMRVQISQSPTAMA

LYN = LYN (Homo sapiens, UniProt P07948); conditions: 10 μM
Sequence of LYN (P07948 whole entry): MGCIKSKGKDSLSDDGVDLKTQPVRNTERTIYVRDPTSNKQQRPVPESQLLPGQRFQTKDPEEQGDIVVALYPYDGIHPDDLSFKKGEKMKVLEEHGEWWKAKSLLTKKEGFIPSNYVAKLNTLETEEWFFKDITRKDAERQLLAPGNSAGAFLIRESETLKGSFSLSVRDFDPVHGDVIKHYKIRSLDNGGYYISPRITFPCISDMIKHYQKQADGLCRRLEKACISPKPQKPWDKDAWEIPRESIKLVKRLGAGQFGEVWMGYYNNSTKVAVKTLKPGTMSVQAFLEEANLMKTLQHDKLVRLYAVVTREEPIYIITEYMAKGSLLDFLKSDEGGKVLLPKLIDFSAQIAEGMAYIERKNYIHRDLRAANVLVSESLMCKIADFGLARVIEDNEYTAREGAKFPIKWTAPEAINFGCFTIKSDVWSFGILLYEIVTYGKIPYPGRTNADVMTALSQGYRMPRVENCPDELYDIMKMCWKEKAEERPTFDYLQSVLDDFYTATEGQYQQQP

CSK = CSK (Homo sapiens, UniProt P41240); assay: biochemical; conditions: read-out: Percent control
Sequence of CSK (P41240 whole entry): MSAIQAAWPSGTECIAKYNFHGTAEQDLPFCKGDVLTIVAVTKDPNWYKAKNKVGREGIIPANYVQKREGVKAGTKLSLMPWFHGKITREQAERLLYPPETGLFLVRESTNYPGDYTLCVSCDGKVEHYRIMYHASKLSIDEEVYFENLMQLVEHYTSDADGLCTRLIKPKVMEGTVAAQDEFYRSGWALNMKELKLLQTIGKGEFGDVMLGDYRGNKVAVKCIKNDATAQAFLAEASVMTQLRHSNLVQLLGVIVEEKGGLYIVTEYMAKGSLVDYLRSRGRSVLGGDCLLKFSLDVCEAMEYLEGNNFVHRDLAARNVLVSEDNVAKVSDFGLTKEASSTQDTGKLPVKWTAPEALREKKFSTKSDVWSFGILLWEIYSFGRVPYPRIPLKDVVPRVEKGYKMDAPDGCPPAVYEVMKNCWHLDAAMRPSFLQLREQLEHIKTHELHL

KIT(L576P) = KIT(L576P) (Homo sapiens, UniProt P10721, L576P); assay: biochemical; conditions: read-out: Percent control
Sequence of KIT(L576P) (P10721 26-976 L576P): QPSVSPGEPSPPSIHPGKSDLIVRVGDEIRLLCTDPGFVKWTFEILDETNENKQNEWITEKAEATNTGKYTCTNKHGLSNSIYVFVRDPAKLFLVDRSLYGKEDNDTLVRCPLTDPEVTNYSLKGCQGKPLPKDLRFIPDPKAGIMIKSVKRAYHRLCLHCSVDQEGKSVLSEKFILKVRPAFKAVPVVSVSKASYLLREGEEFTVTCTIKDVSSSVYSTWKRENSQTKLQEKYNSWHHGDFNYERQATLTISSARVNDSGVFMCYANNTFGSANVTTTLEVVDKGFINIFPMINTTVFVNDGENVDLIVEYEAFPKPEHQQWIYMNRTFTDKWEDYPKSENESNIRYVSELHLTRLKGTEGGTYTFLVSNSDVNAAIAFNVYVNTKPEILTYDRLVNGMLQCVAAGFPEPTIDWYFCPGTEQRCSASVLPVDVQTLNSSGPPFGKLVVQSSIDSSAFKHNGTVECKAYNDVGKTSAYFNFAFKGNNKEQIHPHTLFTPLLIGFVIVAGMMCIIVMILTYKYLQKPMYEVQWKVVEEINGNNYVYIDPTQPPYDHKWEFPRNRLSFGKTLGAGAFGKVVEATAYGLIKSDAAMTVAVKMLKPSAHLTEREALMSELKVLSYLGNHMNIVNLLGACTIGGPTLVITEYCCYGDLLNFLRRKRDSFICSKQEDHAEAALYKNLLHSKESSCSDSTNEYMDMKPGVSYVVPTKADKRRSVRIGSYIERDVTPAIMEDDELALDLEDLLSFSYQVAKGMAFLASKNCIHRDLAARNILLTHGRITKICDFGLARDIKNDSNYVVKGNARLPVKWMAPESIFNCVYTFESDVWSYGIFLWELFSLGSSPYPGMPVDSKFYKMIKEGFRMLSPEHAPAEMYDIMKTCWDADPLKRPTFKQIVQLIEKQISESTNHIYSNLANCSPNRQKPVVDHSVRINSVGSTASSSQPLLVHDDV

PDGFRA = PDGFRA (Homo sapiens, UniProt P16234); assay: biochemical; conditions: read-out: Percent control
Sequence of PDGFRA (P16234 24-1089): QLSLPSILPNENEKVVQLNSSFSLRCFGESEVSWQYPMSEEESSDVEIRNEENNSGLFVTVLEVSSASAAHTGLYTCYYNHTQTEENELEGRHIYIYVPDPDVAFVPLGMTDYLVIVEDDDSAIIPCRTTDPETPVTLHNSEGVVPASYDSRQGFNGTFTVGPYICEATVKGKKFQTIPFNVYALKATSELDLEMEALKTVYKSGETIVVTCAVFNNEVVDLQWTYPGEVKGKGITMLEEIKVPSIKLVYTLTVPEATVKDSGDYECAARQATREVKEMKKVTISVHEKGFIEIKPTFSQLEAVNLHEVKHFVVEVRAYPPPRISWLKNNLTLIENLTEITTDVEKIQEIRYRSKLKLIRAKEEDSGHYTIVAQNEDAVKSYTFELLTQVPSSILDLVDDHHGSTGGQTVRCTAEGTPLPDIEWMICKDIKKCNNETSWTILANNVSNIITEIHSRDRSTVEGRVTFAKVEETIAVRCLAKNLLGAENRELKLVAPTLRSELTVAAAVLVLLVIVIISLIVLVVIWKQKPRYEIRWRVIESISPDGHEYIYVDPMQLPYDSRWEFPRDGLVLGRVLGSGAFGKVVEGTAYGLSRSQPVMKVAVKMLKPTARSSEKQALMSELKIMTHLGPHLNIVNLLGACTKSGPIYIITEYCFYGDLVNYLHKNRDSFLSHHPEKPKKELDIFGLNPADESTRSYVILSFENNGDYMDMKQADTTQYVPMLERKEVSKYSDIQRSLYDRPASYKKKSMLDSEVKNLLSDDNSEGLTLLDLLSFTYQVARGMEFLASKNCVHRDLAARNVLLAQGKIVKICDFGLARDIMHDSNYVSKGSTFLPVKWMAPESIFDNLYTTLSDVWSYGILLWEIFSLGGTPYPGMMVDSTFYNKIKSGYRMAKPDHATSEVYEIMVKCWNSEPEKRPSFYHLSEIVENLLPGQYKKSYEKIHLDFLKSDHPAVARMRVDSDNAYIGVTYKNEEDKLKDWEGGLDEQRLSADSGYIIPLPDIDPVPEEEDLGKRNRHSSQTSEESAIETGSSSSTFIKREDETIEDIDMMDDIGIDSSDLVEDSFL

[2] = JAK3(JH1domain-catalytic), 10 μM

T1 sequence (Q05397 whole entry): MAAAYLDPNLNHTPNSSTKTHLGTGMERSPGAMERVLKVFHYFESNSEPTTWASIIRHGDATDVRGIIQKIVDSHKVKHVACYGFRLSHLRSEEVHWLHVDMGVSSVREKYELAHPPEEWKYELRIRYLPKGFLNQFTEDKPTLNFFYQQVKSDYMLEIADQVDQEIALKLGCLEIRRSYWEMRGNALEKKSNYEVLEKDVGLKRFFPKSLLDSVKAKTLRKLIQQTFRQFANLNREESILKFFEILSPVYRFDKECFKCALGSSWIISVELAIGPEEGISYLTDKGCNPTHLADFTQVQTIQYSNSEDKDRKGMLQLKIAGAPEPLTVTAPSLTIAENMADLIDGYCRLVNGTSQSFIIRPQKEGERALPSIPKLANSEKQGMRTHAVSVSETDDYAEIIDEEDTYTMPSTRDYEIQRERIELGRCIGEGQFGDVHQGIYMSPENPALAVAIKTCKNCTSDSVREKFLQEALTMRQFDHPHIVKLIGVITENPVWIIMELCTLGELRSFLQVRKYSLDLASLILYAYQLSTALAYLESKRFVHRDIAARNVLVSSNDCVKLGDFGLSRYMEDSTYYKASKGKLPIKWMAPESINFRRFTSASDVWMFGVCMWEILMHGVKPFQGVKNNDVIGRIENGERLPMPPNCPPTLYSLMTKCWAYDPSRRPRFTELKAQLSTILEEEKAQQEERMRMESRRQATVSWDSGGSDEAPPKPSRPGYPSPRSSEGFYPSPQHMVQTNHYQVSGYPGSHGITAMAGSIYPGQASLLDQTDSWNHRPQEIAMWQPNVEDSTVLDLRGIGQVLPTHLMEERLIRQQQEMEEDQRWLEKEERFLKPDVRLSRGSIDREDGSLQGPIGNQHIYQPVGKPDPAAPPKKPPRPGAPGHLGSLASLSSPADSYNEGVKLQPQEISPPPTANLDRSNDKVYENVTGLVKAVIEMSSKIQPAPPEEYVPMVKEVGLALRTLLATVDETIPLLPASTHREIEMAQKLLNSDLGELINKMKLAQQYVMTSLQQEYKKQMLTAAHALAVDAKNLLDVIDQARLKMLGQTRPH

Cc1ccc(NC(=O)c2ccc(CN3CCN(C)CC3)cc2)cc1Nc1nccc(-c2cccnc2)n1 [Imatinib, reference compound]
Percent control (FAK; FAK, 10 μM): 100%
Percent control (INSRR; INSRR, 10 μM): 100%
Percent control [1, 2]: 100%
Percent control (MUSK; MUSK, 10 μM): 100%
Percent control (EPHB1): 100%
Percent control (LYN): 74%
remaining activity at 10 µM (CSK): 100%
remaining activity at 10 µM (KIT(L576P)): 0.1%
remaining activity at 10 µM (PDGFRA): 0.3%

Cc1ccc(NC(=O)c2ccc(CN3CCN(C)CC3)cc2)cc1Nc1nccc(-c2cccnc2)[n+]1[Pt-2]1([Cl])[NH2+]C2CCCCC2[NH2+]1 (centres unmarked) [1b, oxaliplatin-imatinib]
Percent control (FAK; FAK, 10 μM): 90%
Percent control (INSRR; INSRR, 10 μM): 100%
Percent control [1, 2]: 55%
Percent control (MUSK; MUSK, 10 μM): 100%
Percent control (EPHB1): 94%
Percent control (LYN): 67%

COc1cc2c(Nc3ccc(Br)cc3F)[n+]([Pt-2]3([Cl])[NH2+]C4CCCCC4[NH2+]3)cnc2cc1OCC1CCN(C)CC1 (centres unmarked) [3b, oxaliplatin-vandetanib]
Percent control (FAK; FAK, 10 μM): 86%
Percent control (INSRR; INSRR, 10 μM): 100%
Percent control [1, 2]: 100%
Percent control (MUSK; MUSK, 10 μM): 95%
Percent control (EPHB1): 31%
Percent control (LYN): 21%

C#Cc1cccc(Nc2c3cc(OCCOC)c(OCCOC)cc3nc[n+]2[Pt@SP2-2]([NH3+])([NH3+])[Cl])c1 [2a, cisplatin-erlotinib]
Percent control (FAK; FAK, 10 μM): 94%
Percent control (INSRR; INSRR, 10 μM): 100%
Percent control [1, 2]: 28%
Percent control (MUSK; MUSK, 10 μM): 97%
Percent control (EPHB1): 90%
Percent control (LYN): 69%

COc1cc2c(Nc3ccc(Br)cc3F)ncnc2cc1OCC1CCN(C)CC1 [Vandetanib, reference compound]
remaining binding at 10 µM (FAK; FAK, 10 μM): 100%
remaining binding at 10 µM (INSRR; INSRR, 10 μM): 100%
remaining binding at 10 µM [1, 2]: 100%
remaining binding at 10 µM (MUSK; MUSK, 10 μM): 100%
remaining activity at 10 µM (CSK): 20%
remaining activity at 10 µM (KIT(L576P)): 1.4%
remaining activity at 10 µM (PDGFRA): 2.2%

C#Cc1cccc(Nc2ncnc3cc(OCCOC)c(OCCOC)cc23)c1 [Erlotinib]
remaining binding at 10 µM (FAK): 100%
remaining binding at 10 µM (INSRR): 100%
remaining binding at 10 µM [1]: 6.5%
remaining binding at 10 µM (MUSK): 100%
remaining activity at 10 µM (CSK): 49%
remaining activity at 10 µM (KIT(L576P)): 25.9%
remaining activity at 10 µM (PDGFRA): 15.3%

From article PMC4858680, “A platinum-based hybrid drug design approach to circumvent acquired resistance to molecular targeted tyrosine kinase inhibitors” (Scientific Reports, 2016)
